The experiment concerns the target baculovirus-expressed ALK (Homo sapiens, UniProt Q9UM73). Description: ALK Kinase Assay (ELISA/TRF, PLC-γ substrate). Note: 1 µM ATP (Km level). In kind it is biochemical. The note with it: read-out: ALK Kinase Inhibition (IC50). As for the experimental part: Example compounds were tested for their ability to inhibit the kinase activity of baculovirus-expressed ALK using a modification of the ELISA protocol reported for trkA in Angeles, T. S. et al., Anal. Biochem. 1996, 236, 49-55, which is incorporated herein by reference in its entirety. Phosphorylation of the substrate, phospholipase C-gamma (PLC-γ) generated as a fusion protein with glutathione S-transferase (GST) as reported in Rotin, D. et al., EMBO J. 1992, 11, 559-567, which is incorporated herein by reference in its entirety, was detected with a europium-labeled anti-phosphotyrosine antibody and measured by time-resolved fluorescence (TRF). Briefly, each 96-well plate was coated with 100 μL/well of 10 μg/mL substrate (phospholipase C-γ) in Tris-buffered saline (TBS). […] The reaction was initiated by adding enzyme (30 ng/ml ALK) and was allowed to proceed at 37° C. for 15 minutes. Detection of the phosphorylated product was performed by adding 100 μl/well of Eu-N1 labeled PT66 antibody (Perkin Elmer # AD0041). Incubation at 37° C. then proceeded for one (1) hour, followed by addition of 100 μL enhancement solution (Wallac #1244-105). The plate was gently agitated and after thirty minutes, the fluorescence of the resulting solution was measured using the EnVision 2100 (or 2102) multilabel plate reader (Perkin Elmer).
Data analysis was performed using ActivityBase (IDBS, Guilford, UK). IC50 values were calculated by plotting percent inhibition versus log10 of the concentration of compound and fitting to the nonlinear regression sigmoidal dose-response (variable slope) equation in XLFit (IDBS, Guilford, UK).
For orientation: An ELISA detects its analyte on a solid surface through an enzyme-linked reagent.
baculovirus-expressed ALK, sequence (Q9UM73 19-1620): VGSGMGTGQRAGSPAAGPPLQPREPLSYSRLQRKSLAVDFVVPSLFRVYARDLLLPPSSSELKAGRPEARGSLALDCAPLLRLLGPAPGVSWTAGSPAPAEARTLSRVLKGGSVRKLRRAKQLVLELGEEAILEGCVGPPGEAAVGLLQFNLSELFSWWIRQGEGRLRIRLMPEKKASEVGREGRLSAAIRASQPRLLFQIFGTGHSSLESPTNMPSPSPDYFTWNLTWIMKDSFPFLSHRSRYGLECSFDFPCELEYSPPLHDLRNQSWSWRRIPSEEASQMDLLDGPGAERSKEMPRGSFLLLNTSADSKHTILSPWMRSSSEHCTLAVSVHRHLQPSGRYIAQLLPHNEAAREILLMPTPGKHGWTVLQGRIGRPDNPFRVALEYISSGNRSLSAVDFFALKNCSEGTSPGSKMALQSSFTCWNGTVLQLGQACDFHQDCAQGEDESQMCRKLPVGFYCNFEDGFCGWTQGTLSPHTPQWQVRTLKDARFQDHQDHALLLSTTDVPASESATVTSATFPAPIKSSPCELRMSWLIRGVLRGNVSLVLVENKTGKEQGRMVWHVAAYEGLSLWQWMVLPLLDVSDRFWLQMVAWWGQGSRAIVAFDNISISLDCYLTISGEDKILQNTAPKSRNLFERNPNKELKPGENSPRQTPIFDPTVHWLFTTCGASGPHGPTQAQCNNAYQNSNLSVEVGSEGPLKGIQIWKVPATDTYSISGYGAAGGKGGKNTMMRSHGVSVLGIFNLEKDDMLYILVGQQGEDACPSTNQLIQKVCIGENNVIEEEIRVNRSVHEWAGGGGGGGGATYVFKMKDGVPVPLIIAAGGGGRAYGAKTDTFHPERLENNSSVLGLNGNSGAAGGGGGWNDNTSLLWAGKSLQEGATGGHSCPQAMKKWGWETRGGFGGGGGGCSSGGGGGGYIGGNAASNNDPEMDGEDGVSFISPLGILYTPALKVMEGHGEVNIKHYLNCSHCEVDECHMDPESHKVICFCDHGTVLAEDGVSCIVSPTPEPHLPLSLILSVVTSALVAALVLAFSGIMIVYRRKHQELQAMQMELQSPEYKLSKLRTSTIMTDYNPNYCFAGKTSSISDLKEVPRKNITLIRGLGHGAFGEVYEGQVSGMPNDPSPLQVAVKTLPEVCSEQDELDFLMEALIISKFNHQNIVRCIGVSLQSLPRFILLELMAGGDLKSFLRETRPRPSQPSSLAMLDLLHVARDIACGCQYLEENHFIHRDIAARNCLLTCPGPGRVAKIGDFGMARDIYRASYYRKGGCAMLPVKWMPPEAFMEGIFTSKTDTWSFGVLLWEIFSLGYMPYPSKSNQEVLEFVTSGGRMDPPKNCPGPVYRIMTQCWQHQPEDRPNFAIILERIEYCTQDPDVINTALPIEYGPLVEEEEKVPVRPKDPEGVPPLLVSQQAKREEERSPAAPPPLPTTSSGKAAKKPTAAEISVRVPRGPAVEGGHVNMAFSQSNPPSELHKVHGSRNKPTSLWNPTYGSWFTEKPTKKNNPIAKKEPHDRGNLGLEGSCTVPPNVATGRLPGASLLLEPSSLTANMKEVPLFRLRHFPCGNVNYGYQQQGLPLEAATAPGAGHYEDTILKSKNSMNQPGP
By IC50 is commonly meant the point on the concentration scale where inhibition reaches its midpoint. Consider `O=C(c1ccc(-c2cnc3c(c2)N(Cc2cc(Cl)ccc2C(F)(F)F)CCN3)cc1)N1CCN(c2cccc(C(F)(F)F)c2)CC1` [Example 374, (4-{1-[5-Chloro-2-(trifluoromethyl)benzyl]-1,2,3,4-tetrahydropyrido[2,3-b]pyrazin-7-yl}phenyl)-{4-[3-(trifluoromethyl)phenyl]piperazin-1-yl}methanone], for which the IC50 was in the range of 100 to 1000 nM.

Regarding `O=C(NC1CCN(Cc2ccccc2)C1)c1cccc(-c2cnc3c(c2)N(Cc2cc(Cl)ccc2C(F)(F)F)CCN3)c1` (stereo not drawn) [Example 361, N-(1-Benzylpyrrolidin-3-yl)-3-{1-[5-chloro-2-(trifluoromethyl)benzyl]-1,2,3,4-tetrahydropyrido[2,3-b]pyrazin-7-yl}benzamide], the concentration for half-maximal inhibition (IC50) was under 100 nM. Under `CC(C)NC(=O)CN1CCN(C(=O)c2ccc(-c3cnc4c(c3)N(Cc3cc(Cl)ccc3C(F)(F)F)CCN4)cc2)CC1` [Example 402, 2-[4-(4-{1-[5-Chloro-2-(trifluoromethyl)benzyl]-1,2,3,4-tetrahydropyrido[2,3-b]pyrazin-7-yl}benzoyl)piperazin-1-yl]-N-isopropylacetamide] stands under 100 nM; under `COc1cccc(CNC(=O)c2cccc(-c3cnc4c(c3)N(Cc3cc(Cl)ccc3C(F)(F)F)CCN4)c2)c1` [Example 353, 3-{1-[5-Chloro-2-(trifluoromethyl)benzyl]-1,2,3,4-tetrahydropyrido[2,3-b]pyrazin-7-yl}-N-(3-methoxybenzyl)benzamide], 1000 to 10000 nM. For the compound `O=C(NCc1ccc(OC(F)(F)F)cc1)c1ccc(-c2cnc3c(c2)N(Cc2cc(Cl)ccc2C(F)(F)F)CCN3)cc1` [Example 395, 4-{1-[5-Chloro-2-(trifluoromethyl)benzyl]-1,2,3,4-tetrahydropyrido[2,3-b]pyrazin-7-yl}-N-[4-(trifluoromethoxy)benzyl]benzamide], the IC50 was in the range of 100 to 1000 nM. With `O=C(c1ccc(-c2cnc3c(c2)N(Cc2cc(Cl)ccc2C(F)(F)F)CCN3)cc1)N1CCN(c2ccc(Cl)c(Cl)c2)CC1` [Example 379, (4-{1-[5-Chloro-2-(trifluoromethyl)benzyl]-1,2,3,4-tetrahydropyrido[2,3-b]pyrazin-7-yl}phenyl)-[4-(3,4-dichlorophenyl)piperazin-1-yl]methanone] the figure was 100 to 1000 nM; with `O=C(c1ccccc1)N1CCN(C(=O)c2cccc(-c3cnc4c(c3)N(Cc3cc(Cl)ccc3C(F)(F)F)CCN4)c2)CC1` [Example 323, (4-Benzoylpiperazin-1-yl)-(3-{1-[5-Chloro-2-(trifluoromethyl)benzyl]-1,2,3,4-tetrahydropyrido[2,3-b]pyrazin-7-yl}phenyl)methanone], 100 to 1000 nM; with `O=C(c1ccc(-c2cnc3c(c2)N(Cc2cc(Cl)ccc2C(F)(F)F)CCN3)cc1)N1CCC(c2noc3cc(F)ccc23)CC1` [Example 387, (4-{1-[5-Chloro-2-(trifluoromethyl)benzyl]-1,2,3,4-tetrahydropyrido[2,3-b]pyrazin-7-yl}phenyl)-[4-(6-fluorobenzo[d]isoxazol-3-yl)-piperidin-1-yl]methanone], 100 to 1000 nM. Regarding `CC(=O)N1CCN(C(=O)c2ccc(-c3cnc4c(c3)N(Cc3cc(Cl)ccc3C(F)(F)F)CCN4)cc2)CC1` [Example 392, 1-[4-(4-{1-[5-Chloro-2-(trifluoromethyl)benzyl]-1,2,3,4-tetrahydropyrido[2,3-b]pyrazin-7-yl}benzoyl)piperazin-1-yl]ethanone], the IC50 is under 100 nM. With `O=C(NCCc1ccccn1)c1ccc(-c2cnc3c(c2)N(Cc2cc(Cl)ccc2C(F)(F)F)CCN3)cc1` [Example 388, 4-{1-[5-Chloro-2-(trifluoromethyl)benzyl]-1,2,3,4-tetrahydropyrido[2,3-b]pyrazin-7-yl}-N-(2-pyridin-2-yl-ethyl)benzamide] the figure was 100 to 1000 nM; with `O=C(c1ccc(-c2cnc3c(c2)N(Cc2cc(Cl)ccc2C(F)(F)F)CCN3)cc1)N1CCC(c2ccccc2)CC1` [Example 375, (4-{1-[5-Chloro-2-(trifluoromethyl)benzyl]-1,2,3,4-tetrahydropyrido[2,3-b]pyrazin-7-yl}phenyl)-(4-phenylpiperidin-1-yl)methanone], 100 to 1000 nM. With `O=C(c1ccc(-c2cnc3c(c2)N(Cc2cc(Cl)ccc2C(F)(F)F)CCN3)cc1)N1CCN(c2ncnc3ccsc23)CC1` [Example 382, (4-{1-[5-Chloro-2-(trifluoromethyl)benzyl]-1,2,3,4-tetrahydropyrido[2,3-b]pyrazin-7-yl}phenyl)-(4-thieno[3,2-d]pyrimidin-4-yl-piperazin-1-yl)methanone] the figure was 100 to 1000 nM; with `O=C(NC1CCN(Cc2ccccc2)CC1)c1ccc(-c2cnc3c(c2)N(Cc2cc(Cl)ccc2C(F)(F)F)CCN3)cc1` [Example 390, N-(1-Benzylpiperidin-4-yl)-4-{1-[5-chloro-2-(trifluoromethyl)benzyl]-1,2,3,4-tetrahydropyrido[2,3-b]pyrazin-7-yl}benzamide], 100 to 1000 nM; with `O=C(c1cccc(-c2cnc3c(c2)N(Cc2cc(Cl)ccc2C(F)(F)F)CCN3)c1)N1CCC(c2noc3cc(F)ccc23)CC1` [Example 325, (3-{1-[5-Chloro-2-(trifluoromethyl)benzyl]-1,2,3,4-tetrahydropyrido[2,3-b]pyrazin-7-yl}phenyl)-[4-(6-fluorobenzo[d]isoxazol-3-yl)piperidin-1-yl]methanone], 100 to 1000 nM. With `COc1ccc(N2CCN(C(=O)c3ccc(-c4cnc5c(c4)N(Cc4cc(Cl)ccc4C(F)(F)F)CCN5)cc3)CC2)cc1` [Example 411, (4-{1-[5-Chloro-2-(trifluoromethyl)benzyl]-1,2,3,4-tetrahydropyrido[2,3-b]pyrazin-7-yl}phenyl)-[4-(4-methoxyphenyl)piperazin-1-yl]methanone], the 50% inhibitory concentration (IC50) lay in the range of 100 to 1000 nM. Under `CN1CCC(NC(=O)c2ccc(-c3cnc4c(c3)N(Cc3cc(Cl)ccc3C(F)(F)F)CCN4)cc2)CC1` [Example 393, 4-{1-[5-Chloro-2-(trifluoromethyl)benzyl]-1,2,3,4-tetrahydropyrido[2,3-b]pyrazin-7-yl}-N-(1-methylpiperidin-4-yl)benzamide] stands under 100 nM. Consider `O=C(c1cccc(-c2cnc3c(c2)N(Cc2cc(Cl)ccc2C(F)(F)F)CCN3)c1)N1CCN(CC2CCCCC2)CC1` [Example 362, (3-{1-[5-Chloro-2-(trifluoromethyl)benzyl]-1,2,3,4-tetrahydropyrido[2,3-b]pyrazin-7-yl}phenyl)-[4-(cyclohexylmethyl)piperazin-1-yl]methanone], for which the IC50 was in the range of 100 to 1000 nM. With `O=C(c1cccc(-c2cnc3c(c2)N(Cc2cc(Cl)ccc2C(F)(F)F)CCN3)c1)N1CCN(c2ccccc2Cl)CC1` [Example 360, [4-(2-Chlorophenyl)piperazin-1-yl]-(3-{1-[5-chloro-2-(trifluoromethyl)benzyl]-1,2,3,4-tetrahydropyrido[2,3-b]pyrazin-7-yl}phenyl)methanone] the figure was 100 to 1000 nM; with `O=C(NCc1ccccc1)c1cccc(-c2cnc3c(c2)N(Cc2cc(Cl)ccc2C(F)(F)F)CCN3)c1` [Example 356, N-Benzyl-3-{1-[5-Chloro-2-(trifluoromethyl)benzyl]-1,2,3,4-tetrahydropyrido[2,3-b]pyrazin-7-yl}benzamide], 100 to 1000 nM; with `O=C(NCc1ccc(Cl)cc1)c1ccc(-c2cnc3c(c2)N(Cc2cc(Cl)ccc2C(F)(F)F)CCN3)cc1` [Example 413, N-(4-Chlorobenzyl)-4-{1-[5-chloro-2-(trifluoromethyl)benzyl]-1,2,3,4-tetrahydropyrido[2,3-b]pyrazin-7-yl}benzamide], 100 to 1000 nM. Under `CCOC(=O)N1CCC(NC(=O)c2cccc(-c3cnc4c(c3)N(Cc3cc(Cl)ccc3C(F)(F)F)CCN4)c2)CC1` [Example 326, 4-(3-{1-[5-Chloro-2-(trifluoromethyl)benzyl]-1,2,3,4-tetrahydropyrido[2,3-b]pyrazin-7-yl}benzoylamino)piperidine-1-carboxylic acid ethyl ester] stands 100 to 1000 nM.

Turning to `O=C(NC1Cc2ccccc2C1)c1ccc(-c2cnc3c(c2)N(Cc2cc(Cl)ccc2C(F)(F)F)CCN3)cc1` [Example 423, 4-{1-[5-Chloro-2-(trifluoromethyl)benzyl]-1,2,3,4-tetrahydropyrido[2,3-b]pyrazin-7-yl}-N-indan-2-ylbenzamide], the IC50 fell in the range of 100 to 1000 nM. Under `O=C(c1cccc(-c2cnc3c(c2)N(Cc2cc(Cl)ccc2C(F)(F)F)CCN3)c1)N1CCN(c2ccccc2)CC1` [Example 306, (3-{1-[5-Chloro-2-(trifluoromethyl)benzyl]-1,2,3,4-tetrahydropyrido[2,3-b]pyrazin-7-yl}phenyl)-(4-phenylpiperazin-1-yl)methanone] stands 100 to 1000 nM; under `O=C(NCc1cc(C(F)(F)F)cc(C(F)(F)F)c1)c1ccc(-c2cnc3c(c2)N(Cc2cc(Cl)ccc2C(F)(F)F)CCN3)cc1` [Example 397, N-[3,5-Bis(trifluoromethyl)benzyl]-4-{1-[5-Chloro-2-(trifluoromethyl)benzyl]-1,2,3,4-tetrahydropyrido[2,3-b]pyrazin-7-yl}benzamide], 100 to 1000 nM.

For the origin of these results see patent publication US7601716B2, “Pyridopyrazines and derivatives thereof as ALK and c-Met inhibitors” (Cephalon, Inc., priority 2006, dated 2009).
